{"source": "ChEMBL document CHEMBL1201862", "about": "“PubChem BioAssay data set” (2004)", "key": {"[1]": {"experiment": "loss of viability in HepG2 cells – cell-based, CellTiter-Glo, cherry-picked, cytotoxicity control for Shn3 inhibitor project, dose response (AID 624134)", "assay_type": "functional"}, "[2]": {"experiment": "non-specific 3'UTR reporter inhibition in Clone20-Shn3RL – cell-based, Renilla luciferase, cherry-picked, counter-screen for Shn3 inhibitor project, dose response (AID 624133)", "assay_type": "functional"}, "[3]": {"experiment": "reduction of Shn3 3'UTR-driven luciferase in osteoblasts – cell-based, Clone20 osteoblasts, firefly luciferase, cherry-picked, dose response (AID 624132)", "assay_type": "functional"}, "[4]": {"experiment": "general mammalian cell viability loss – inhibitor set, cherry-pick, set 2, cytotoxicity control for miR-122 modulator project, dose response (AID 720697)", "assay_type": "functional, cell-based"}, "[5]": {"experiment": "HEK-293T viability loss after treatment – luminescence, T-cell screen hits, cytotoxicity control for TCR NF-kB inhibitor project, dose response (AID 489026);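 also: cells exposed to compound about 14 hours before the viability readout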", "assay_type": "functional, cell-based"}, "[6]": {"experiment": "HIV-1 Vif–A3G interaction blockers – biochemical, TR-FRET, GST-Vif 1-94, biotin-A3G peptide, dose response retest, primary screen (AID 1117319);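 also: TR-FRET signal of purified GST-Vif binding a biotinylated A3G peptide; inhibitors lower the FRET signal by blocking Vif and A3G binding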", "assay_type": "functional"}, "Nonstructural protein 1": {"molecular_target": "Nonstructural protein 1 (Influenza A virus, UniProt Q194T2)", "sequence (Q194T2 whole entry)": "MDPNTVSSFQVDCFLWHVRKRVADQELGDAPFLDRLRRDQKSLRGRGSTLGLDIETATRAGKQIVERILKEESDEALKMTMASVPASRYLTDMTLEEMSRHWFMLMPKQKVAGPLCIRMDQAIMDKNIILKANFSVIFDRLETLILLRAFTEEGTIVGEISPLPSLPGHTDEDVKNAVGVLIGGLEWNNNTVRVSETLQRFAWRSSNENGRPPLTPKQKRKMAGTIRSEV", "assay_type": "functional, Influenza A virus (A/California/07/2009(H1N1))"}, "[7]": {"experiment": "luciferase reporter signal suppression in cells – H4 neuroglioma cells, luminescence, dose response (AID 1990)", "assay_type": "functional, cell-based"}, "[8]": {"experiment": "alpha-synuclein stem-loop luciferase translation blockers – H4 neuroglioma cells, luminescence, confirmation (AID 1988)", "assay_type": "functional, cell-based"}, "BJ [9]": {"test_system": "BJ", "experiment": "BJ-TERT-LT-ST fibroblast viability loss – cell-based, RAS-independent, luminescence, dose response (AID 1935);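 also: BJ fibroblasts immortalized with TERT plus LT and ST oncogenes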", "assay_type": "functional", "settings": "Homo sapiens"}, "[10]": {"experiment": "Trypanosoma cruzi growth suppression in host cells – NIH3T3 host cells, beta-gal luminescence, confirmation (AID 2044);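 also: luminescent beta-galactosidase reporter signal from transgenic T. cruzi replicating inside host cells; inhibitors lower the luminescence signal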", "assay_type": "functional, cell-based"}, "BJ [11]": {"test_system": "BJ", "experiment": "cells", "assay_type": "functional, cell-based", "settings": "Homo sapiens"}, "INS1": {"test_system": "INS1", "experiment": "INS-1E survival protection against cytokine death – cell-based, luminescence, retest, dose response (AID 449756);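 also: cell death triggered by IL-1 beta plus TNF-alpha plus IFN-gamma mixture; protective hits raise ATP signal compared with cytokine alone wells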", "assay_type": "functional", "settings": "Rattus norvegicus, INS1"}, "[12]": {"experiment": "Luminescence Cell-Based Dose Response HTS to Identify Inhibitors of 5'UTR Stem-Loop Driven Prion Protein mRNA Translation in H4 Neuroglioblastoma Cells. [Related pubchem assays: 1827 (Project Summary), 1813 (Primary HTS)]", "assay_type": "functional"}, "[13]": {"experiment": "DRD fibroblast viability loss – cell-based, non-viral oncogenic, luminescence, dose response (AID 1934)", "assay_type": "functional", "settings": "Homo sapiens"}, "BJ [14]": {"test_system": "BJ", "experiment": "BJ-TERT fibroblast viability loss – cell-based, RAS-independent, luminescence, dose response (AID 1933)", "assay_type": "functional", "settings": "Homo sapiens"}, "[15]": {"experiment": "NIH3T3 cell viability loss – ATP luminescence, mouse fibroblasts, counter-screen, dose response (AID 2010);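 also: cells exposed to compound for about 90 hours before reading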", "assay_type": "functional, cell-based"}, "[16]": {"experiment": "intracellular Trypanosoma cruzi inhibitors in host cells – cell-based, plate reader, cherry-pick samples, set 3, dose response (AID 651818);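 also: compounds incubated with infected cells for about four days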", "assay_type": "functional"}, "[17]": {"molecular_target": "T1, DNA repair and recombination protein RAD54-like (Homo sapiens, UniProt Q92698)", "T1 sequence (Q92698 whole entry)": "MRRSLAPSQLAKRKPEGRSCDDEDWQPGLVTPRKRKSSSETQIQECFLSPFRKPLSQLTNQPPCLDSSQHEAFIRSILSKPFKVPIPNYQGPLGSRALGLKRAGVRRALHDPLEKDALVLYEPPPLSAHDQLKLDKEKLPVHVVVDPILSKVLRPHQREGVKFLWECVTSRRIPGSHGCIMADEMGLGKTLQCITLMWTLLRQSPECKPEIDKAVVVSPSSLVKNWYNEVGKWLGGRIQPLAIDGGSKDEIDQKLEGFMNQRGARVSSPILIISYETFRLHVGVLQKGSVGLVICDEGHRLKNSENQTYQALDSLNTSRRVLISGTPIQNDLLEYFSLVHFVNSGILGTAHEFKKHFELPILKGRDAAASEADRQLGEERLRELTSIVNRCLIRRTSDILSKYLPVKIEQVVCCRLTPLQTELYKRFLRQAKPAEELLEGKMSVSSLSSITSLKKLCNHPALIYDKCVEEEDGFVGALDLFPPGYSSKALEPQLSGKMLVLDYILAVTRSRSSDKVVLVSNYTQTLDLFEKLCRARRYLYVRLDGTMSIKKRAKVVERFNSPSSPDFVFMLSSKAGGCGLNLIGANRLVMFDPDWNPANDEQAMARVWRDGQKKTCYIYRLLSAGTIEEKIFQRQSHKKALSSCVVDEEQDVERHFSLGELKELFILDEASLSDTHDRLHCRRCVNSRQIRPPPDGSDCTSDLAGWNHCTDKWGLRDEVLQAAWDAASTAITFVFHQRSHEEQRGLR", "experiment": "RAD54 Holliday junction migration blockers – biochemical, fluorescence, cherry-picked samples, dose series, confirmation (AID 651657)", "assay_type": "functional"}}, "note": "Activity calls are given as the source filed them.", "data": [{"smiles": "O=C1CCCN2N=C(SCC(=O)Nc3cccc(C(F)(F)F)c3)SC2=N1", "values": [{"measurement": "AC50", "setting": "[1]", "value": "5.46 µM (active)"}, {"measurement": "AC50", "setting": "[2]", "value": "2.95 µM (active)"}, {"measurement": "AC50", "setting": "[3]", "value": "4.37 µM (active)"}]}, {"smiles": "CN1C[C@H]2[C@@H](c3ccccc31)[C@@H](CO)N2C(=O)C1CCOCC1", "values": [{"measurement": "AC50", "setting": "[4]", "value": "< 0.195 µM (active)"}]}, {"smiles": "COc1cc(OC)c(/C=C2\\C(=O)Nc3ccccc32)c(OC)c1", "values": [{"measurement": "IC50", "setting": "[5]", "value": "69.6 µM (inactive)"}]}, {"smiles": "COc1cccc(-n2c(Cc3cc(O)nc(O)n3)nnc2SCC(=O)NC2CCCC2)c1", "values": [{"measurement": "IC50", "setting": "[6]", "value": "> 100 µM (active)"}]}, {"smiles": "C/C(=N\\NC(=O)c1ccccc1Cl)c1ccccn1", "values": [{"measurement": "IC50", "setting": "Nonstructural protein 1", "value": "11.1 µM (active)"}, {"measurement": "EC50", "setting": "[7]", "value": "9.67 µM (active)"}, {"measurement": "EC50", "setting": "[8]", "value": "5.67 µM (active)"}, {"measurement": "EC50", "setting": "BJ [9]", "value": "12.2 µM (active)"}, {"measurement": "EC50", "setting": "[10]", "value": "1.5 µM (active)"}, {"measurement": "EC50", "setting": "BJ [11]", "value": "13.5 µM (active)"}, {"measurement": "AC50", "setting": "INS1", "value": "1.4 µM (active)"}, {"measurement": "EC50", "setting": "[12]", "value": "6.44 µM (active)"}, {"measurement": "EC50", "setting": "[13]", "value": "17.5 µM (active)"}, {"measurement": "EC50", "setting": "BJ [14]", "value": "14.8 µM (active)"}, {"measurement": "EC50", "setting": "[15]", "value": "5.56 µM (active)"}]}, {"smiles": "Cc1cc(C(=O)Nc2ccc3c(c2)C(=O)N(C)[C@H]2CC[C@H](CC(=O)N[C@@H](C)c4ccccc4)O[C@H]2CO3)no1", "values": [{"measurement": "AC50", "setting": "[4]", "value": "0.478 µM (active)"}]}, {"smiles": "Cc1cccc(NS(=O)(=O)c2ccc(-c3cnc(C4CC4)o3)cc2)c1", "values": [{"measurement": "IC50", "setting": "[5]", "value": "67 µM (inactive)"}]}, {"smiles": "C[C@@H]1CCCCO[C@H](CN(C)Cc2ccc(C(F)(F)F)cc2)[C@@H](C)CN([C@H](C)CO)C(=O)c2cc(NS(=O)(=O)c3ccc(Cl)cc3)ccc2O1", "values": [{"measurement": "AC50", "setting": "[16]", "value": "3.33 µM (active)"}]}, {"smiles": "O=C(c1cnn2cccnc12)N1CCN(Cc2ccc3c(c2)OCO3)CC1", "values": [{"measurement": "IC50", "setting": "[6]", "value": "> 100 µM (active)"}]}, {"smiles": "C[C@@H]1CCCCO[C@H](CN(C)C(=O)Nc2ccc(C(F)(F)F)cc2)[C@@H](C)CN([C@H](C)CO)C(=O)c2cc(NC(=O)Nc3ccc(F)cc3)ccc2O1", "values": [{"measurement": "AC50", "setting": "[16]", "value": "1.35 µM (active)"}]}, {"smiles": "C/C=C/c1ccc([C@H]2[C@@H](CO)N[C@@H]2CN(C(=O)c2ccccc2F)C(C)C)cc1", "values": [{"measurement": "AC50", "setting": "[4]", "value": "2.45 µM (active)"}]}, {"smiles": "C[C@H](CO)N1C[C@H](C)[C@H](CN(C)C(=O)Nc2cccc3ccccc23)Oc2c(NC(=O)Nc3ccc4c(c3)OCO4)cccc2C1=O", "values": [{"measurement": "AC50", "setting": "[16]", "value": "11.9 µM (active)"}]}, {"smiles": "Cc1ccc2oc(=O)c3cc(C(=O)NCCCN4C(C)CCCC4C)sc3c2c1", "note": "(centres undefined)", "values": [{"measurement": "AC50", "setting": "[17]", "value": "100 µM (inactive)"}]}, {"smiles": "C[C@H]1CN([C@@H](C)CO)C(=O)c2cc(NC(=O)Nc3ccccc3)ccc2O[C@H]1CN(C)Cc1ccc(C(=O)Nc2ccccc2N)cc1", "values": [{"measurement": "AC50", "setting": "[16]", "value": "4.89 µM (active)"}]}, {"smiles": "COc1ccc(CC(=O)Nc2nc(-c3ccc(F)c(F)c3)cs2)cc1OC", "values": [{"measurement": "IC50", "setting": "[5]", "value": "51.3 µM (inactive)"}, {"measurement": "AC50", "setting": "INS1", "value": "6.65 µM (active)"}]}, {"smiles": "CCn1c(=N)c(C(=O)NC)cc2c(=O)n3cccc(C)c3nc21", "values": [{"measurement": "AC50", "setting": "[17]", "value": "19.9 µM (active)"}]}]}
